# Results from patent US11174291B2, “Silstatin compounds” (Arizona Board of Regents on behalf of Arizona State …, priority 2015, dated 2021).
# What was measured:
# [1] = amide bond; 36-membered ring; 2 steps
# BXPC-3 = assay: NCI sulforhodamine B growth inhibition, pancreas cancer cells; assay type: cell-based, human; details: BXPC3 pancreas, 48 h
# Experimental: (§1) Inhibition of human cancer cell growth was assessed using the National Cancer Institute's standard sulforhodamine B assay as previously described.^19In summary, cells in a 5% fetal bovine serum/RPMI1640 medium were inoculated in 96-well plates and incubated for 24 hrs. Next, serial dilutions of the compounds were added. After 48 h, the plates were fixed with trichloroacetic acid, stained with sulforhodamine B, and read with an automated microplate reader. A growth inhibition of 50% (GI50 or the drug concentration causing a 50% reduction in the net protein increase) was calcd from optical density data with Immunosoft software. Normal cells were treated in identical conditions. Normal human prostate CRL-2221 (PZ—HPV-7) was grown in MEM 10% FBS and normal human breast MCF-10A in MEGM kit.
# DU-145 = assay: NCI sulforhodamine B growth inhibition, prostate cancer cells; assay type: cell-based, human; details: DU145 prostate, 48 h
# Experimental: as §1
# [2] = tested on: mini panel of cancer cell lines; assay: Growth inhibition across the mini panel of cancer cell lines; assay type: cell-based, human; details: for Cancer cell growth inhibition, assessment in words: mini panel of cancer cell lines (Table 1)
# Experimental: as §1
# The growth inhibition property of the silstatins and some intermediates were evaluated against a mini panel of cancer cell lines (Table 1).
# KM20L2 = assay: NCI sulforhodamine B growth inhibition, colon cancer cells; assay type: cell-based, human; details: 48 h
# Experimental: as §1
# MCF-7 = assay: NCI sulforhodamine B growth inhibition, breast cancer cells; assay type: cell-based, human; details: MCF-7 breast, 48 h
# Experimental: as §1
# SF268 = assay: NCI sulforhodamine B growth inhibition, CNS cancer cells; assay type: cell-based, human; details: 48 h
# Experimental: as §1
# NCI-H460 = assay: NCI sulforhodamine B growth inhibition, lung cancer cells; assay type: cell-based, human; details: 48 h
# Experimental: as §1
# CRL-2221 (PZ—HPV-7) = assay: Sulforhodamine B growth inhibition, normal prostate cells; assay type: cell-based, human; details: for Growth inhibition of human normal cell lines GI50: CRL-2221 normal prostate
# Experimental: as §1
# MCF-10A = assay: Sulforhodamine B growth inhibition, normal breast cells; assay type: cell-based, human; details: for Growth inhibition of human normal cell lines GI50: MCF-10A normal breast
# Experimental: as §1
molecule,measurement,setting,value
Cyclo-{Thr(tBu)-D-Hica-D-Val-Lac-[Val-D-Hica-D-Val-Lac]2},"ring closure, isolated yield",[1],33%
Cyclo-[Val-D-Hica-D-Val-Lac]3,"ring closure, isolated yield",[1],28%
Cyclo-{Tyr(tBu)-D-Hcha-D-Val-Lac-[Val-D-Hica-D-Val-Lac]2},"ring closure, isolated yield",[1],22%
"CC(C)C[C@H]1OC(=O)[C@H](C(C)C)NC(=O)[C@H](C)OC(=O)[C@@H](C(C)C)NC(=O)[C@@H](CC2CCCCC2)OC(=O)[C@H]([C@@H](C)O)NC(=O)[C@H](C)OC(=O)[C@@H](C(C)C)NC(=O)[C@@H](CC(C)C)OC(=O)[C@H](C(C)C)NC(=O)[C@H](C)OC(=O)[C@@H](C(C)C)NC1=O [Silstatin 7 (18a), Cyclo-{Thr-D-Hcha-D-Val-Lac-[Val-D-Hica-D-Val-Lac]2}]",Growth inhibition of human cancer cell lines GI50,BXPC-3,0.0038 µg/mL
same,Growth inhibition of human cancer cell lines GI50,DU-145,0.003 µg/mL
same,"Cancer cell growth inhibition, assessment in words",[2],rescuing the activity
same,Growth inhibition of human cancer cell lines GI50,KM20L2,0.0015 µg/mL
same,Growth inhibition of human cancer cell lines GI50,MCF-7,0.0014 µg/mL
same,Growth inhibition of human cancer cell lines GI50,SF268,0.0031 µg/mL
same,Growth inhibition of human cancer cell lines GI50,NCI-H460,0.0032 µg/mL
same,Growth inhibition of human normal cell lines GI50,CRL-2221 (PZ—HPV-7),0.004 µg/mL
same,Growth inhibition of human normal cell lines GI50,MCF-10A,0.004 µg/mL
CC(C)C[C@H]1OC(=O)[C@H](C(C)C)NC(=O)[C@H](C)OC(=O)[C@@H](C(C)C)NC(=O)[C@@H](CC2CCCCC2)OC(=O)[C@H]([C@@H](C)OC(=O)CCCN(C)C(=O)OCc2ccc(O[C@@H]3O[C@H](C(=O)O)[C@@H](O)[C@H](O)[C@H]3O)c([N+](=O)[O-])c2)NC(=O)[C@H](C)OC(=O)[C@@H](C(C)C)NC(=O)[C@@H](CC(C)C)OC(=O)[C@H](C(C)C)NC(=O)[C@H](C)OC(=O)[C@@H](C(C)C)NC1=O [Silstatin 28],Growth inhibition of human cancer cell lines GI50,BXPC-3,0.20 µg/mL
same,Growth inhibition of human cancer cell lines GI50,DU-145,0.13 µg/mL
same,Decrease of cancer cell growth inhibition activity with respect to the parent silstatin 7,[2]; across the six cancer cell lines of Table 1,16-52 times
same,Growth inhibition of human cancer cell lines GI50,KM20L2,0.04 µg/mL
same,Growth inhibition of human cancer cell lines GI50,MCF-7,0.031 µg/mL
same,Growth inhibition of human cancer cell lines GI50,SF268,0.05 µg/mL
same,Growth inhibition of human cancer cell lines GI50,NCI-H460,0.07 µg/mL
same,Decrease of normal cell growth inhibition activity with respect to the parent silstatin 7 (18a),CRL-2221 (PZ—HPV-7); CRL-2221,12.5 times
same,Growth inhibition of human normal cell lines GI50,CRL-2221 (PZ—HPV-7),0.05 µg/mL
same,Decrease of normal cell growth inhibition activity with respect to the parent silstatin 7 (18a),MCF-10A; MCF-10A,62.5 times
same,Growth inhibition of human normal cell lines GI50,MCF-10A,0.25 µg/mL
Cyclo-{Tyr(tBu)-D-Hica-D-Val-Lac-[Val-D-Hica-D-Val-Lac]2},"ring closure, isolated yield",[1],11%
Cyclo-{Tyr(tBu)-D-Hcha-D-Val-Lac-[Val-D-Hcha-D-Val-Lac]2},"ring closure, isolated yield",[1],34%
Cyclo-{Thr(tBu)-D-Hcha-D-Val-Lac-[Val-D-Hica-D-Val-Lac]2},"ring closure, isolated yield",[1],48%
"CC(C)[C@@H]1NC(=O)[C@H](C)OC(=O)[C@@H](C(C)C)NC(=O)[C@@H](CC2CCCCC2)OC(=O)[C@H](C(C)C)NC(=O)[C@H](C)OC(=O)[C@@H](C(C)C)NC(=O)[C@@H](CC2CCCCC2)OC(=O)[C@H](C(C)C)NC(=O)[C@H](C)OC(=O)[C@@H](C(C)C)NC(=O)[C@@H](CC2CCCCC2)OC1=O [Silstatin 4 (14a), Cyclo-[Val-D-Hcha-D-Val-Lac]3]",Growth inhibition of human cancer cell lines GI50,BXPC-3,0.5 µg/mL
same,Growth inhibition of human cancer cell lines GI50,DU-145,0.22 µg/mL
same,"Cancer cell growth inhibition, assessment in words",[2],marked reduction of cancer cell growth inhibition capability
same,Growth inhibition of human cancer cell lines GI50,KM20L2,0.18 µg/mL
same,Growth inhibition of human cancer cell lines GI50,MCF-7,0.18 µg/mL
same,Growth inhibition of human cancer cell lines GI50,SF268,0.081 µg/mL
same,Growth inhibition of human cancer cell lines GI50,NCI-H460,0.4 µg/mL
Cyclo-[Val-D-Hcha-D-Val-Lac]3,"ring closure, isolated yield",[1],23%
Cyclo-{Thr(tBu)-D-Hcha-D-Val-Lac-[Val-D-Hcha-D-Val-Lac]2},"ring closure, isolated yield",[1],29%
